Experimental data: publication PMC11638965, “Leveraging Dual-Ligase Recruitment to Enhance Protein Degradation via a Heterotrivalent Proteolysis Targeting Chimera” (Journal of the American Chemical Society, 2024)
pEC50: −log10 of the molar value. “Also recorded” adds a separate entry of the source. Read-outs that look alike come from different tables or passages of the source.

What was measured:
BRD4 = BRD4 (Homo sapiens, UniProt O60885); assay: Live cell kinetic HiBiT degradation assay, HiBiT-BRD4 HEK293 cells (parental, CRBN KO, VHL KO); type: cell-based; details: parental, CRBN KO and VHL KO HiBiT-BRD4 HEK293 cells (Figure S5); listed as 93
Experimental: HEK293 HiBiT-BRD2 (LgBiT stable), HEK293 HiBiT-BRD3 (LgBiT stable), and HEK293 HiBiT-BRD4 (LgBiT stable) were created using CRISPR/Cas9 to insert at HiBiT tag at the N-terminal genomic loci of BRD2, BRD3, or BRD4 in a cell line stably expressing LgBiT protein as described previously.[23]
For kinetic degradation experiments, HEK293 HiBiT-BRD2, 3, or 4 (LgBiT stable) cells and HEK293 HiBiT-BRD4 (LgBiT) CRBN KO and VHL KO cells were plated at 20,000 cells/well in DMEM +10% FBS in white 96-well tissue culture plates and allowed to adhere overnight. The next day, media was removed and 90 μL of prewarmed CO2-independent medium (Gibco) containing Endurazine (Promega) at a 1:100 dilution from stock was added. Plates were incubated at 37 °C for 3 h to allow luminescence to equilibrate. A threefold dilution series of each PROTAC at 10x the desired final concentration was prepared (with the amount of DMSO in each treatment condition kept constant). After luminescence equilibration, a preread luminescence measurement was taken (prior to compound addition) to allow for baseline normalization to account for possible plating differences. Cells were then treated with 10 μL of the prepared PROTAC dilution series (in triplicate or quadruplicate). Treated plates were placed in a GloMax Discover luminometer (Promega) prewarmed to 37 °C and luminescence measurements were obtained every 7 min for 24 h. Kinetic degradation plots were obtained by first normalizing time course luminescence readings in each well to the preread measurement, then to the average value of the DMSO only control at each time point. Data was analyzed using GraphPad Prism (version 8) and excel. Dmax values were identified as the lowest luminescence reading in each well. Rate constant values were calculated using a one phase exponential decay Y = (Y0-Plateau) e(K*^X) + Plateau using Prism (Y0 constrained to 1). Dmax 50 values were calculated by plotting Dmax as a function of concentration, then fitting plots using the following equation: [drawing 1] to determine IC50.
HiBiT-BRD4 (LgBiT stable) HEK293 cells (Promega) were used to generate both VHL KO HiBiT-BRD4 (LgBiT stable) and CRBN KO HiBiT-BRD4 (LgBiT stable) cell lines. For VHL, gRNAs targeting exon 1 ([…]) and exon 2 ([…]) and for CRBN, gRNAs targeting exon 3 ([…]) and exon 6 ([…]) were purchased from IDT DNA (Table 5). For each gRNA, tracrRNA/crRNA duplexes were formed by combining 10 μL of 100 μM Alt-R […] (IDT), 100 μM Alt-R crRNA (IDT) and heating at 95C for 5 min, then were allowed to cool to room temp for 20 min. RNPs were then formed by combining 75 pmol Cas9 (IDT) with 2.4 μL total of prepared tracrRNA/crRNA complex (1.2 μL for each gRNA targeting each exon). Cells were then trypsinized and resuspended at 10,000,000 cells/mL in 1 mL of Mirus Ingenio electroporation solution. Three μL of 100 μM electroporation enhancer (Mirus) was added, along with 3 μL of RNP solution. Cells were electroporated in 2 mm cuvettes using a BioRad system (190 V, 950 μF, infinite resistance) and were then plated in a T75 flask in full growth medium to allow for recovery. After recovery from electroporation, knockout pools were sorted for single cells in 96-well tissue culture treated plates. Clonal populations which expanded from single cells were then screened for loss of function of VHL by treating with MZ1, or loss of function of CRBN by treating with dBET6, using a HiBiT-BRD4 luminescent readout assay. Genomic DNA isolated from candidate clones was then PCR-amplified (Table of primers below), Gibson-assembled into a pF1A plasmid backbone, transformed into E. coli., and then Sanger sequenced to confirm presence of indels in the targeted exons. […] VHL exon 3 carried a 19 bp deletion on one allele, and a 1 bp insertion on the other allele, both occurring after the premature stop codon in exon 1.

RKO WT cells = assay: cells; type: cell-based, human
Experimental: (§1) RKO WT, VHL KO, CRBN KO and CRBN/VHL dKO cells were cultured in Dulbecco’s modified Eagle’s medium supplemented with 10% FCS and 1% penicillin–streptomycin. RKO CRBN KO and VHL KO were generated previously.[45] RKO CRBN/VHL dKO cells were generated by transiently expressing pSpCas9(BB)-2A-GFP (PX458) (Addgene 48138) loaded with a short guide RNA (sgRNA) targeting VHL (Fwd: […], Rev: […]) in RKO CRBN KO cells. Clones were single cell seeded and checked for VHL and CRBN double deletion via Western blot or PCR on genomic DNA (gDNA).
Cells were seeded in 96-well plates at a cell density of 3750 cells per well and treated for 3 days with DMSO or drug at ten √10 serial diluted concentrations. […] Cell viability was assessed using the CellTiter-Glo assay (CellTiter-Glo Luminescent Cell Viability Assay, Promega G7573) according to manufacturer instructions. Luminescence signal was measured on a Multilabel Plate Reader Platform Victor X3 model 2030 (PerkinElmer). Survival curves and EC50 values were determined using GraphPad Prism v.10.0.3 by fitting a nonlinear regression to the log10-transformed drug concentration and the relative viability after normalization of each data point to the mean luminescence of the lowest drug concentration.

RKO CRBN/VHL dKO cells = assay: Cell viability assay (CellTiter-Glo); type: cell-based, human
Experimental: as §1
(§2) Cells were seeded in 96-well plates at a cell density of 3750 cells per well and treated for 3 days with DMSO or drug at ten √10 serial diluted concentrations. Starting concentration for all drugs was 10 μM, and each treatment was performed in biological triplicates. Cell viability was assessed using the CellTiter-Glo assay (CellTiter-Glo Luminescent Cell Viability Assay, Promega G7573) according to manufacturer instructions. Luminescence signal was measured on a Multilabel Plate Reader Platform Victor X3 model 2030 (PerkinElmer). Survival curves and EC50 values were determined using GraphPad Prism v.10.0.3 by fitting a nonlinear regression to the log10-transformed drug concentration and the relative viability after normalization of each data point to the mean luminescence of the lowest drug concentration.

RKO VHL KO cells = assay: Cell viability assay (CellTiter-Glo); type: cell-based, human
Experimental: as §1, §2

RKO CRBN KO cells [1] = assay: Cell viability assay (CellTiter-Glo); type: cell-based, human; details: 500 pM to 10 μM, 3 days (Figure 10, Table S6)
RKO CRBN KO cells [2] = assay: Cell viability assay (CellTiter-Glo); type: cell-based, human; details: Homo sapiens, 72 h, 316 pM to 10 μM, 3 days, n = 6 (Figure 3C, Table S1)
Experimental: as §1, §2

K562 cells = assay: Cell viability assay (CellTiter-Glo); type: cell-based, human; details: Homo sapiens; WT K562, 5.12 pM to 10 uM, n = 3 (Table S4)
Experimental: as §2, with “[…],” for “3750 cells per well and treated for 3 days with DMSO or drug at ten √10 serial diluted concentrations. Starting concentration for all drugs was 10 μM,”

KBM7 cells = assay: Cell viability assay (CellTiter-Glo); type: cell-based, human; details: Homo sapiens, KBM-7; WT KBM7, 5.12 pM to 10 uM, n = 3 (Table S4)
Experimental: as §2, with “[…],” for “3750 cells per well and treated for 3 days with DMSO or drug at ten √10 serial diluted concentrations. Starting concentration for all drugs was 10 μM,”

[3] = Homo sapiens, 72 h, 500 pM to 10 μM, 3 days (Figure 10, Table S6), read-out: EC50 RKO WT

Row | pEC50 (RKO WT cells; 500 pM to 10 μM, 3 days (Figure 10, Table S6), listed as 93, read-out: EC50 RKO WT) | pEC50 (RKO WT cells; [3]) | pEC50 (RKO WT cells; Homo sapiens, 72 h, 316 pM to 10 μM, 3 days, n = 6 (Figure 3C, Table S1), read-out: EC50 RKO WT) | pEC50 (RKO WT cells; Homo sapiens, RKO WT, 316 pM to 10 μM, n = 6, combination: dBET6 and MZ1 each from 5 μM (Table S7), read-out: EC50 RKO) | pEC50 (RKO WT cells; Homo sapiens, WT RKO, 316 pM to 10 μM, n = 3 (Table S4), read-out: EC50 RKO) | pEC50 (K562 cells) | SMILES | on-target BRD4 degradation activity (in words) (BRD4) | pEC50 (RKO CRBN/VHL dKO cells; 500 pM to 10 μM, 3 days (Figure 10, Table S6), read-out: EC50 RKO CRBN/VHL dKO) | pEC50 (RKO CRBN/VHL dKO cells; Homo sapiens, 72 h, 500 pM to 10 μM, 3 days (Figure 10, Table S6), read-out: EC50 RKO CRBN/VHL dKO) | pEC50 (RKO VHL KO cells; 500 pM to 10 μM, 3 days (Figure 10, Table S6)) | pEC50 (RKO VHL KO cells; Homo sapiens, 72 h, 500 pM to 10 μM, 3 days (Figure 10, Table S6)) | pEC50 (RKO CRBN KO cells [1]; listed as 93) | pEC50 (RKO CRBN KO cells [1]; Homo sapiens, 72 h) | pEC50 (RKO CRBN KO cells [2]) | pEC50 (RKO CRBN/VHL dKO cells; Homo sapiens, Figure 10 experiment, read-out: EC50 RKO VHL/CRBN dKO) | pEC50 (RKO CRBN/VHL dKO cells; Homo sapiens, both VHL and CRBN knocked out (Figure 3C), read-out: EC50 RKO CRBN/VHL dKO) | pEC50 (RKO VHL KO cells; Homo sapiens, 72 h, 316 pM to 10 μM, 3 days, n = 6 (Figure 3C, Table S1)) | pEC50 (RKO VHL KO cells; Homo sapiens, Figure 10 experiment) | pEC50 (KBM7 cells)
1 | 6.97 | ~6.97 |  |  |  |  | Cc1ncsc1-c1ccc([C@H](C)NC(=O)[C@@H]2C[C@@H](O)CN2C(=O)[C@@H](NC(=O)COCC(C)(COCCOCCOCCNc2cc3c(cc2F)C(=O)N(C2CCC(=O)N(C)C2=O)C3=O)COCCOCCOCCOC(=O)C[C@@H]2N=C(c3ccc(Cl)cc3)c3c(sc(C)c3C)-n3c(C)nnc32)C(C)(C)C)cc1 (mixture of isomers) [neg-AB3067 (93), (17S)-11-((2-(2-(2-((6-fluoro-2-(1-methyl-2,6-dioxopiperidin-3-yl)-1,3-dioxoisoindolin-5-yl)amino)ethoxy)ethoxy)ethoxy)methyl)-17-((2S,4R)-4-hydroxy-2-(((S)-1-(4-(4-methylthiazol-5-yl)phenyl)ethyl)carbamoyl)pyrrolidine-1-carbonyl)-11,18,18-trimethyl-15-oxo-3,6,9,13-tetraoxa-16-azanonadecyl 2-((S)-4-(4-chlorophenyl)-2,3,9-trimethyl-6H-thieno[3,2-f][1,2,4]triazolo[4,3-a][1,4]diazepin-6-yl)acetate] | inactive in VHL KO cells; also recorded: decreased relative to 27 in parental and CRBN KO cells | ~6.40 | 6.38 | ~6.40 | 6.41 | 6.98 | ~6.97 |  |  |  |  |  | 
2 |  | 6.80 | 6.67 | 6.82 | 6.73 | 6.66 | Cc1ncsc1-c1ccc(CNC(=O)[C@@H]2C[C@@H](O)CN2C(=O)[C@@H](NC(=O)COCCOCCOCCNC(=O)C[C@@H]2N=C(c3ccc(Cl)cc3)c3c(sc(C)c3C)-n3c(C)nnc32)C(C)(C)C)cc1 [MZ1, reference compound] |  |  |  |  |  |  | 6.87 | 6.74 | < 5.30 | < 5.00 | < 5.00 | < 5.30 | 7.18
